{"source": "paper PMC9861180", "about": "“Nintedanib-αVβ6 Integrin Ligand Conjugates Reduce TGFβ-Induced EMT in Human Non-Small Cell Lung Cancer” (International Journal of Molecular Sciences, 2023)", "key": {"human recombinant VEGFR2": {"target": "T1, human recombinant VEGFR2 (Homo sapiens, UniProt P35968)", "T1 construct": "purchased Eurofins (Cerep laboratories; KinaseProfiler, IC50 Profiler service)", "T1 sequence (P35968 20-1356)": "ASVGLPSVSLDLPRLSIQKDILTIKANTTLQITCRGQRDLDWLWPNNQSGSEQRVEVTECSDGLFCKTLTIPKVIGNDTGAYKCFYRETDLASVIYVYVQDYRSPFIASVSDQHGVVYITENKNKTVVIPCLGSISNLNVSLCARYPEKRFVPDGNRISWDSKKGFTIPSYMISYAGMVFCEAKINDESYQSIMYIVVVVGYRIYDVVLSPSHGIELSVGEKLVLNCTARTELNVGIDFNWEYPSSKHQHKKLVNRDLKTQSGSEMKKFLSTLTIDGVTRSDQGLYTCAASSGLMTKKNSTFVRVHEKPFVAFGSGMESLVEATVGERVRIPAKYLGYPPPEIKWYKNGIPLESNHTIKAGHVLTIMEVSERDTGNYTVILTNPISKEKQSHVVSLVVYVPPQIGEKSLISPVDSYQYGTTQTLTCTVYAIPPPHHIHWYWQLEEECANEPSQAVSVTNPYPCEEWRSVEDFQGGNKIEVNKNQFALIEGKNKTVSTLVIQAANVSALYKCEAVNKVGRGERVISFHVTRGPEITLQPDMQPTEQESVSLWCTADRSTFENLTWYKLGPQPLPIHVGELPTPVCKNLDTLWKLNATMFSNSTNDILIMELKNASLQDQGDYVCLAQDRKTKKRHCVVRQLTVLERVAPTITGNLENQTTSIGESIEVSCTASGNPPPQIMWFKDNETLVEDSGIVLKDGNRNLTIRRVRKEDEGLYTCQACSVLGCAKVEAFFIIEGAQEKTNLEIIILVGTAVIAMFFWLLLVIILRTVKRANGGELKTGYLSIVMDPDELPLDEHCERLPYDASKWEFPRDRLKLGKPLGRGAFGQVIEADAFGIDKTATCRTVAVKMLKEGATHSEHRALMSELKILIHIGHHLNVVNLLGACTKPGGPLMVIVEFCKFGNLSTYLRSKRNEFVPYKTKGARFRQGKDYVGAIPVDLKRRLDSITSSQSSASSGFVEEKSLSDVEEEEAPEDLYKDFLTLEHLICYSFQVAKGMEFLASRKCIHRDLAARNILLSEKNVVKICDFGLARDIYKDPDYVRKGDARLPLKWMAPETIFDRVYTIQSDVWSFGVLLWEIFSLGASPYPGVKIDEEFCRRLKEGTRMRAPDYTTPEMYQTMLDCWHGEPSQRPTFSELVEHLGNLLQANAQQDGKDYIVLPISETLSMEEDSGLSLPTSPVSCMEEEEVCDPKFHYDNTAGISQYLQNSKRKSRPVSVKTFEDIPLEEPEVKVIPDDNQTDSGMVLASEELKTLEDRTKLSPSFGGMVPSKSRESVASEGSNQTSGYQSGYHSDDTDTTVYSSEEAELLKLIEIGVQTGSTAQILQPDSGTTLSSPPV", "test": "VEGFR2 tyrosine kinase inhibition, radiometric (Eurofins)", "assay_type": "biochemical", "details": "nine-point concentration-response curve, radiometric detection; read-out: IC50, inhibition of VEGFR2 phosphorylation", "description": "Inhibition of receptor phosphorylation was measured by a radiometric detection method. IC50 values were determined from a nine-point concentration−response curve generated using the standard assay conditions for the target."}, "TGFβ-treated A549 cells": {"tested_on": "TGFβ-treated A549 cells", "test": "cells", "assay_type": "cell-based, human", "details": "24 h", "description": "A549 cell viability was assessed using MTT (3-(4,5-dimethylthiazol-2-yl)-2,5-diphenyltetrazolium bromide) tetrazolium reduction assay (M5655, Sigma Aldrich, Milan, Italy), as described in [58]. Briefly, A549 cells were treated for 48 h in complete medium with TGFβ (10 ng/mL). Next, cells (2.5 × 10^3) were plated into 96-multiwell plates in 100 µL of complete medium. After adhesion, the compounds were added to the medium at different concentrations. After 24 h exposure, the medium was replaced with 100 µL MTT reagent in each well, and plates were incubated at 37 °C. After 2 h, MTT was removed, and the blue MTT–formazan product was solubilized with dimethyl sulfoxide (DMSO, Sigma Aldrich). The absorbance of the formazan solution was read at 595 nm using the microplate reader (Bio-Rad, Milan, Italy). Inhibition of cell proliferation was calculated by the IC50 calculator (AAT Bioquest, Inc., Pleasanton, CA, USA, https://www.aatbio.com/ (accessed on 1 July 2022))."}, "A549 cells [1]": {"tested_on": "A549 cells", "test": "Inhibition of A549 cell adhesion to fibronectin", "assay_type": "cell-based, human", "description": "(§1) To verify whether conjugates 1–3 were able to bind the integrin receptor efficiently and compete with the receptor’s natural ligand (fibronectin) for the binding site, we performed an inhibition of adhesion assay. In this assay, the biological effects of the three conjugated compounds were compared to the inhibitory ability of the unconjugated ligand 4. Inhibition of A549 and H1975 cell adhesion to fibronectin was determined in both untreated and TGFβ-treated cells. The assay was carried out with increasing concentrations of compounds 1–3 and unconjugated cyclic peptidomimetic 4. […]\n(§2) Figure 3 Inhibition of A549 (A,B) and H1975 (C,D) cell adhesion to FN (10 μg/mL) in the presence of compounds 1–3, or c(AmpLRGDL) 4 (2 h). […] The inhibitory activity was calculated as the percentage of cell adhesion to FN in untreated cells and was expressed as mean ± SEM. […]\n(§3) 96-well plates were coated with fibronectin (10 µg/mL) (sc-29011 SantaCruz, D.B.A., Milano, Italia) by overnight incubation at 4 °C. […] Next, A549 cells were washed by centrifugation with PBS, counted, and suspended in serum-free medium at 0.6 × 10^6 cells/mL. […] After 2 h of incubation at […], cells were permeabilized with 50 µL of DMSO (C6164, Sigma-Aldrich Merk Life Science S.r.l. Milano, Italy) and plates were examined at 550 nm in a counter BioRad (550 Microplate Reader, BioRad, Milano, Italy). […]"}, "H1975 cells": {"tested_on": "H1975 cells", "test": "Inhibition of H1975 cell adhesion to fibronectin", "assay_type": "cell-based, human", "details": "untreated and TGFβ-treated, increasing concentrations", "description": "as §1, §2, §3"}, "A549 cells [2]": {"tested_on": "A549 cells", "test": "Inhibition of A549 cell adhesion to vitronectin", "assay_type": "cell-based, human", "details": "A549 cells and TGFβ-treated A549 cells", "description": "The highest levels of inhibition in A549 cells were registered with compounds 1 and 2, which were able to inhibit more than 50% adhesion in TGFβ-treated cells even at concentrations of 1 μM, a percentage that raised to 70% when these compounds were tested at 5 μM. […] Moreover, high levels of inhibition were registered in H1975 cells with compounds 1–3 that reached a minimum of 50% inhibition of adhesion in TGFβ-treated cells at 1 μM. These percentages increased to 70% when the compounds were tested at 5 μM. […] As already mentioned, the expression of αvβ3 integrins in A549 cells was reduced after exposure to TGFβ. Since αvβ3 integrins are one of the most avid receptors for vitronectin (VN), we investigated whether compounds 1–4 were able to inhibit A549 cell adhesion to VN. We discovered that, in A549 cells and in TGFβ-treated A549 cells, cell adhesion to vitronectin was not inhibited by the three different conjugated compounds nor by compound 4 (Figure S2E); this lack of efficacy is probably due to the lower binding affinity of the integrin ligand towards the αvβ3 integrin receptors.\n2. […]\nFigure S2. […] The inhibitory activity was calculated as the percentage of cell adhesion to VN in untreated cells and was expressed as means ± SEM. […]"}, "[3]": {"tested_on": "α-smooth muscle actin (α-SMA)", "test": "α-smooth muscle actin protein expression, Western blot", "assay_type": "cell-based, human", "details": "TGFβ-treated A549 cells, 5 μM, 24 h", "experimental": "Data are expressed as means ± SEM of fold increment compared to untreated cells normalized to α-tubulin.\nWestern blot analysis was performed on whole-cell lysates of A549 cells, exposed for 48 h to TGFβ treatment and subsequently exposed to 5 µM concentrations of different compounds. After 24 h incubation, media were rapidly removed and cell monolayers were lysed as previously described in RIPA lysis buffer, with the addition of proteinase inhibitor cocktail (04693124001 Roche Merk Life Science S.r.l., Milano, Italy) for 30 min in ice [35]. Protein content was quantified, and forty-fifty micrograms of total proteins were separated on Bolt® Bis-Tris Plus gels 4–12% (Life Technologies, Monza, Italy). Fractionated proteins were transferred from the gel to a PVDF nitrocellulose membrane using iBlot 2 system (Life Technologies, Monza, Italy). Membranes were blocked for 5 min at room temperature, with EveryBlot Biorad blocking buffer (Life Technologies, Monza, Italy). […] The protein bands were analyzed by the Odyssey Infrared Imaging System (Lycor Bioscience) using software for protein quantification. […]"}, "[4]": {"tested_on": "tumor spheroids of TGFβ-treated A549 cells and murine L929 fibroblasts", "test": "Inhibition of 3D tumor spheroid growth", "assay_type": "cell-based, human", "details": "5 µM, 72 h, vs untreated spheroids", "experimental": "Heterogeneous spheroids of tumor cells and fibroblasts were generated using the hanging drop technique to mimic the complex three-dimensional environment of tumor tissues. […] Next, the fluorescence intensities associated with each cell population were analyzed as previously described.\nHanging drop tumor spheroids were prepared starting from 1:1 mixed cell population (1000 cells/25μL) of TGF𝛽-treated A549 cells and murine L929 fibroblasts. […] (C) Quantitative analysis of inhibition of 3D growth and (D) 3D spheroid internalization of the compounds after 72 h exposure. Data are representative of three independent experiments (n = 6) and expressed as means ± SEM. * p < 0.05 vs. untreated spheroids.\nA549 cells, exposed for 48 h to TGFβ treatment, were mixed in a 1:1 ratio with murine L929 fibroblast (40,000/mL) in order to obtain 3D multicellular tumor spheroids (MCTS) resembling cellular heterogenicity of the neoplastic lesion. […] After one week, multicellular tumor spheroids were completely formed. Tumor spheroids were next used in different experimental procedures. […] For 3D growth inhibition, spheroids were placed on 2% agarose coated dishes in complete medium containing the different treatments at 5 µM concentration. Spheroid areas were analysed and compared to time 0 and used to evaluate the inhibition of 3D growth (yellow lines). Images of all spheroids were taken daily using the EVOS XL Core Imaging System with a 10x objective (Thermofisher Scientific, Waltham, MA, USA ). All images were analysed using the open-source software ImageJ (1.52a, National Institutes of Health, Bethesda, MD, USA)."}, "[5]": {"tested_on": "tumor spheroids of TGFβ-treated A549 cells and murine L929 fibroblasts", "test": "Tumor spheroid 2D flat surface migration and growth", "assay_type": "cell-based, human", "details": "5 µM, fibronectin-coated flat surface", "experimental": "Heterogeneous spheroids of tumor cells and fibroblasts were also used to evaluate the ability of the compounds to inhibit 2D flat surface migration and growth once the spheroids were allowed to attach to a suitable surface (Figure 8).\nHanging drop tumor spheroids were allowed to spread on a 2D fibronectin-coated flat surface. […] Data are representative of three independent experiments (n = 6) and expressed as means ± SEM. * p < 0.05 vs. untreated spheroids.\nA549 cells, exposed for 48 h to TGFβ treatment, were mixed in a 1:1 ratio with murine L929 fibroblast (40,000/mL) in order to obtain 3D multicellular tumor spheroids (MCTS) resembling cellular heterogenicity of the neoplastic lesion. […] After one week, multicellular tumor spheroids were completely formed. Tumor spheroids were next used in different experimental procedures. We evaluated 2D flat surface inhibition of migration and growth, and the inhibition of 3D growth. For 2D flat surface migration and growth inhibition assays, the spheroids were placed on regular culture dishes and allowed to spread and grow in complete medium containing different compounds at 5 µM concentration. The areas of cell spreading were used as parameters for migration (red lines), while the areas of the spheroid core were used as parameters for 2D growth (yellow lines). For 3D growth inhibition, spheroids were placed on 2% agarose coated dishes in complete medium containing the different treatments at 5 µM concentration. Spheroid areas were analysed and compared to time 0 and used to evaluate the inhibition of 3D growth (yellow lines). Images of all spheroids were taken daily using the EVOS XL Core Imaging System with a 10x objective (Thermofisher Scientific, Waltham, MA, USA ). All images were analysed using the open-source software ImageJ (1.52a, National Institutes of Health, Bethesda, MD, USA)."}, "αvβ6 integrin": {"tested_on": "αvβ6 integrin", "design": "method as in PMID 32634263", "details": "cited from earlier work"}, "αvβ3 integrin [6]": {"tested_on": "αvβ3 integrin", "design": "method as in PMID 32634263", "details": "isolated integrin; cited from earlier work"}, "αvβ6 integrin receptor": {"tested_on": "αvβ6 integrin receptor", "test": "Expression of αvβ6 integrin by cytofluorimetric analysis", "assay_type": "cell-based, human", "description": "(§4) Expression of αvβ6 integrins was determined by cytofluorimetric analysis. Human NSCLC A549 and H1975 cells, either grown in standard conditions or exposed to TGFβ treatment, were detached from the substrate using Accutase® to minimize the exposure of the extracellular membrane proteins to the enzymatic activity of trypsin. The cells were then incubated with primary antibodies, in the absence of membrane permeabilization. The cytofluorimetric procedures ensured quantification of the αvβ6 integrin receptor protruding outside the cells. […] These percentages increased to 66% of the parental population in A549 cells and to 55% in H1975, when the cells were exposed to TGFβ for 48 h (Figure 2B,D). […] In addition, we evaluated αvβ6 integrin expression on human melanoma cells (SSM2c, Figure S4A) and murine fibroblasts (L929, Figure S5A), whereas expression of the αvβ3 integrin receptor in these cells had been previously evaluated.\nA549, L929, and K562 cells were allowed to grow in standard conditions; in several experiments, A549 cells were grown in the presence or in the absence of recombinant human TGFβ (10 ng/mL) (#11343160 Immunotools Friesoythe Germany). […] After extensive washes using cytofluorimetric buffer, cells were analyzed using a BD FACSCanto™ flow cytometry system (BD Bioscience, Eysins, Switzerland)."}, "αvβ3 integrin [7]": {"tested_on": "αvβ3 integrin", "test": "Expression of αvβ3 integrin by cytofluorimetric analysis", "assay_type": "cell-based, human", "description": "as §4\nA549, L929, and K562 cells were allowed to grow in standard conditions; in several experiments, A549 cells were grown in the presence or in the absence of recombinant human TGFβ (10 ng/mL) (#11343160 Immunotools Friesoythe Germany). […] After extensive washes using cytofluorimetric buffer, cells were analyzed using a BD FACSCanto™ flow cytometry system (BD Bioscience, Eysins, Switzerland). […]"}}, "note": "“Also recorded” adds a separate entry of the source.", "data": [{"molecule": "COC(=O)c1ccc2c(c1)NC(=O)/C2=C(\\Nc1ccc(N(C)C(=O)CN2CCN(CCCCNC(=O)CCc3cn(CCCCCC(=O)N4C[C@@H]5C[C@H]4C(=O)N[C@@H](CC(C)C)C(=O)N[C@@H](CCCNC(=N)N)C(=O)NCC(=O)N[C@@H](CC(=O)O)C(=O)N[C@@H](CC(C)C)C(=O)N5)nn3)CC2)cc1)c1ccccc1", "note": "[compound 1]", "values": [{"measurement": "IC50", "setting": "human recombinant VEGFR2", "result": 6, "unit": "nM"}, {"measurement": "IC50", "setting": "TGFβ-treated A549 cells", "result": 9500, "unit": "nM"}]}, {"molecule": "c(AmpLRGDL) [compound 4]", "values": [{"measurement": "level of inhibition of cell adhesion to fibronectin", "setting": "A549 cells [1]; even TGFβ-treated, all concentrations tested", "result": "≤ 50", "unit": "%"}, {"measurement": "inhibition of cell adhesion to fibronectin (in words)", "setting": "A549 cells [1]; untreated and TGFβ-treated, increasing concentrations", "result": "weak concentration dependence"}, {"measurement": "inhibition of cell adhesion to fibronectin (in words)", "setting": "H1975 cells", "result": "weak concentration-dependence"}, {"measurement": "inhibition of cell adhesion to vitronectin", "setting": "A549 cells [2]", "result": "not inhibited"}, {"measurement": "α-SMA protein expression", "setting": "[3]", "result": "not able to affect"}, {"measurement": "inhibition of 3D spheroid growth", "setting": "[4]", "result": "did not induce a significant reduction; also recorded: transient reduction"}, {"measurement": "2D flat surface migration of tumor spheroids", "setting": "[5]", "result": "did not inhibit cell growth and migration; also recorded: considerably weaker effect"}, {"measurement": "2D growth of tumor spheroids (spheroid core)", "setting": "[5]", "result": "did not inhibit cell growth and migration; also recorded: very weak inhibition"}, {"measurement": "IC50", "setting": "αvβ6 integrin; isolated integrin", "result": "8.3 ± 0.4", "unit": "nM"}, {"measurement": "selectivity IC50(αvβ3)/IC50(αvβ6)", "setting": "αvβ6 integrin; isolated integrins", "result": 255}, {"measurement": "IC50", "setting": "αvβ3 integrin [6]", "result": "2120 ± 266", "unit": "nM"}]}, {"molecule": "COC(=O)c1ccc2c(c1)NC(=O)/C2=C(\\Nc1ccc(N(C)C(=O)CN2CCN(CCOCCOCCOCc3cn(CCCCCC(=O)N4C[C@@H]5C[C@H]4C(=O)N[C@@H](CC(C)C)C(=O)N[C@@H](CCCNC(=N)N)C(=O)NCC(=O)N[C@@H](CC(=O)O)C(=O)N[C@@H](CC(C)C)C(=O)N5)nn3)CC2)cc1)c1ccccc1", "note": "[compound 2]", "values": [{"measurement": "IC50", "setting": "TGFβ-treated A549 cells", "result": 10100, "unit": "nM"}]}, {"molecule": "TGFβ: recombinant human TGFβ (10 ng/mL) used to induce EMT and αvβ6 expression", "values": [{"measurement": "cell population expressing αvβ6 integrin receptor", "setting": "αvβ6 integrin receptor; A549 cells exposed to TGFβ (10 ng/mL) for 48 h", "result": 66, "unit": "%"}, {"measurement": "cell population expressing αvβ6 integrin receptor", "setting": "αvβ6 integrin receptor; H1975 cells exposed to TGFβ (10 ng/mL) for 48 h", "result": 55, "unit": "%"}, {"measurement": "αvβ3 integrin expression", "setting": "αvβ3 integrin [7]; A549 cells exposed to TGFβ (10 ng/mL) 48 h, 72% without TGFβ", "result": 32, "unit": "%"}, {"measurement": "αvβ3 integrin expression", "setting": "αvβ3 integrin [7]; H1975 cells, unaffected by TGFβ treatment", "result": 98, "unit": "%"}]}]}
